A melting point compilation (Tetko et al.; mined from patent text by program, amines drawn as free bases though some values may be those of a salt)

| melting point | SMILES |
| --- | --- |
| 157 to 158 °C | COc1cc(OC)cc(-c2ncn(-c3cc(OC)c(OC)c(OC)c3)c2-c2ccc(OC)c(F)c2)c1 |
| 150 to 152 °C | COc1ccc(NC(=O)NC2C(=O)Nc3ccccc3N(CCC(C)C)C2=O)cc1 (stereo unspecified) |
| 75 to 77 °C | CCN1c2cscc2C(=O)N(CCN(C)C)c2ccccc21 |
| 140 °C | CCOC(=O)Nc1coc2cc(OCc3ccccc3)ccc12 |
| 141 to 142 °C | O=S(=O)(c1ccc(Cl)cc1)C(c1cc(F)ccc1F)c1cc(NCc2ccncc2)ncc1Cl (stereo unspecified) |
| 198 to 199 °C | Oc1c(Br)cc(Br)c2c(Cl)ncnc12 |
| 87 to 89 °C | COc1ccc(C(C#Cc2ccccc2)CC(=O)N(C)C)cc1OC1CCCC1 (racemic) |
| 119 to 121 °C | O=C(NCCN1CCC(=C(c2ccc(F)cc2)c2ccc(F)cc2)CC1)C1CSC(c2cccnc2)N1 (stereo unspecified) |
| 150 to 152 °C | COC(=O)c1ccccc1S(=O)(=O)N1CCC2(C=Cc3ccccc32)CC1 |
| 262 to 264 °C | CC(=O)Nc1c(C(=O)c2ccncc2)[nH]c2cc(Cl)ccc12 |
| 88 °C | NCC1CCN(Cc2ccccc2)CC1 |
| 202 to 204 °C | CCOC(=O)c1cc(-n2c(=O)[nH]c(C)c(C)c2=O)ccc1Cl |
| < 300 °C | Cc1[nH]c(=S)[nH]c1C(N)=O |
| 195 to 197 °C | CC(CN(C(C)C)C(C)C)N1C(=O)/C(=N/NC(N)=O)c2ccccc21 (stereo unspecified) |
| 165 to 168 °C | CC1(C)CC(C)(C#N)c2cn(-c3ccc(F)cc3)c(C=O)c21 (stereo unspecified) |
| 61 to 64 °C | NC(CO)(CO)CCCCCCCCCCCCCc1ccccc1 |
| 96 to 98 °C | CS(=O)(=O)N1CCC(Nc2nc(Nc3ccc(F)c(CN4CCOCC4)c3)nc(OCC(F)(F)F)n2)CC1 |
| 258 to 260 °C | COC(=O)c1cc(=O)c2oc3cc(OC)ccc3c(=O)c2[nH]1 |
| 147 to 149 °C | O=C(O)CC1=C(c2ccccc2)c2ccccc2OC1 |
| 130 to 132 °C | O=C1C(=O)c2ccccc2C2=C1SCC1(CCN(CCCOc3ccc(Cl)cc3)CC1)O2 |

Continued, compound first:

| SMILES | melting point |
| --- | --- |
| N=C(Nc1ccc([N+](=O)[O-])cc1)c1ccccc1 | 240 to 241 °C |
| CCc1cc2[nH]c(=O)c(-c3ccccc3)cc2c(CC)n1 | > 260 °C |
| COC(=O)c1ccc(OC)c(NC(=NCl)c2ccc(Cl)cc2)c1 | 120 °C |
| CCOC(=O)C1C=Nc2c(ccc(F)c2F)C1=O (stereo unspecified) | 270 °C |
| C=CC[C@@H](CO)[C@@H](O)[C@H](O)C(=O)CO | 112 to 113 °C |
| CC(C)Sc1cc2c(cc1Cl)N=C(c1ccncc1)NS2(=O)=O | 254 to 256 °C |
| COC(=O)C1CCC2C3CCC4CC(OC(=O)CCl)CCC4(C)C3C(OC(=O)CCl)CC12C (stereo unspecified) | 149 to 155 °C |
| CCCCCCCCCCCCc1ccc2cccnc2c1O | 88.5 to 90 °C |
| CCC1(C)OC(=O)C(c2ccccc2)C(=O)O1 (stereo unspecified) | 135 to 136 °C |
| Cc1cc(-n2cnc(CO)c2)ccc1C(C)C | 98 to 102 °C |
| CC(C)c1nccn1-c1ccc([N+](=O)[O-])cc1SC(Cl)(Cl)Cl | 135 °C |
| C=C(C)C(=O)OCCOc1ccc(OCCOC(=O)c2ccc(O)c(Cl)c2)cc1 | 105 to 106 °C |
| CN(C)C(=O)NS(=O)(=O)C=Cc1ccccc1 | 160 to 162 °C |
| CCN1NN(N)N=C1C | 45 to 50 °C |
| Cc1ccc(S(=O)(=O)NCC(CC(=O)Nc2ccccc2)c2ccc(Cl)cc2)cc1 (stereo unspecified) | 200 to 202 °C |
| CCC1(C)CCCC(C)(C)N1OC(C)(C)C#N (stereo unspecified) | 41 to 52 °C |
| CCc1nc2c(N)nc3cc(/C=C/C(=O)N4CCOCC4)ccc3c2n1CC1CCOCC1 | > 260 °C |
| CC(C)N(CCNc1nc(Nc2cccc(NS(C)(=O)=O)c2)nc2[nH]cnc12)C(C)C | 226 to 230 °C |
| Clc1ccc2c(c1)C(c1ccccc1)=NCc1n[nH]cc1-2 | 241 to 243 °C |
| CC(CCN(C)c1ccccc1)=NO | 46 to 49 °C |
| COc1ccnc(CCc2nc3cc(-c4ccc(S(=O)(=O)Nc5ccccc5OC)cc4)cnc3[nH]2)c1 | 215 to 216 °C |
